These results are taken from patent US10301267B2, “Compounds” (AstraZeneca AB, priority 2006, dated 2019).

As usually defined, the IC50 is the midpoint of a concentration-inhibition curve. High values mean weaker potency, low ones greater potency.

Sequence of FGFR1 active kinase (P11362 22-822): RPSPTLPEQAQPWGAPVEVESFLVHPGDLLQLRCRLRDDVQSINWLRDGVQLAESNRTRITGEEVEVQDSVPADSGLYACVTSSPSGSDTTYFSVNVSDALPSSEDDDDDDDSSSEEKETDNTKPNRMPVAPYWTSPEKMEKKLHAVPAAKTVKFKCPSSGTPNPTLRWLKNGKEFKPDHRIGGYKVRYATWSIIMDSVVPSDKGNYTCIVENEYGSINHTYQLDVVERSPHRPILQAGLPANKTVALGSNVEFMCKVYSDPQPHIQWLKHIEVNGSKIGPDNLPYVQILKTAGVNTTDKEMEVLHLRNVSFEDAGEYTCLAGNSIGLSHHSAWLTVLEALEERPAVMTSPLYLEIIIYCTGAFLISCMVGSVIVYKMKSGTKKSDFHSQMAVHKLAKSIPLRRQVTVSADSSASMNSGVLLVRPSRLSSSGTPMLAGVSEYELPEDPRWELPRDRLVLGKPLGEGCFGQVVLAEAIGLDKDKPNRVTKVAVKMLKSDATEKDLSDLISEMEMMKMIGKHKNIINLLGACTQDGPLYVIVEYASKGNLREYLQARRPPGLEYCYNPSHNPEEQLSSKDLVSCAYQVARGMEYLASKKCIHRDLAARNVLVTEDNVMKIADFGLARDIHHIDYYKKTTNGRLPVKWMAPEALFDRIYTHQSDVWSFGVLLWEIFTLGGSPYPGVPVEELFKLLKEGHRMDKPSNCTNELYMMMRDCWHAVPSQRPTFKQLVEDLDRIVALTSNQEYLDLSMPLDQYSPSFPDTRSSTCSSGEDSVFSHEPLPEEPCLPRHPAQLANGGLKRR

The assay concerns the target FGFR1 active kinase (Homo sapiens, UniProt P11362). The assay can be described thus: FGFR Kinase assay - Caliper Echo Dosing. The format is biochemical. As to conditions: FGFR1 7.2 nM, 408 uM ATP, acoustic dosing; geometric mean of n. As to the method: FGFR Kinase Assay—Caliper Echo Dosing
To determine inhibition of FGFR activity, kinase assays were conducted using Caliper technology.
Kinase activity assays were performed in Greiner 384-well low volume plates, with a total reaction volume of 12 ul per well. Final concentration of FGFR1 active kinase in each reaction well was 7.2 nM. The substrate for each assay was a custom peptide with fluorescent tag (13 amino acids in length, […] with the fluorescene tag on the first K).
Compounds were dispensed directly in to assay plates using a Labcyte Echo 550 acoustic droplet ejection unit. Each well received 120 nl of DMSO containing compound such that the final concentration of compound in the assay prior to the addition of the stop solution ranged between 30 uM and 30 pM. In addition to compounds each plate carried maximum and minimum control wells, the max wells contained 120 nl of DMSO and the min wells contained 120 nl of 10 mM staurosporine (LC Laboratories, MA 01801, USA Catalogue No. S-9300). The Enzyme (at 7.2 nM [final]) and Substrate (at 3.6 uM [final]) were added separately to the compound plates, in reaction buffer [comprising: 50 mM MOPS (Sigma, Catalogue No. M1254)—pH 6.5, 0.004% Triton (Sigma, Catalogue No. X-100), 2.4 mM DTT, 12 mM MgCl2, 408 uM ATP] resulting in a final DMSO concentration in the reaction mix of 1%.
Assay plates were incubated at room temperature for 1.5 h, before the reaction was stopped with the addition of buffer [comprising: 100 mM HEPES—pH7.5, 0.033% Brij-35 (Sigma Catalogue No. B4184), 0.22% Caliper Coating Reagent #3 (Caliper Life Sciences Catalogue No. 760050), 88 mM EDTA, 5% DMSO]. Stopped assay plates were then read using the Caliper LabChip® LC3000 (which uses microfludics to measure a shift in mobility between fluorescent labelled peptide and the FGFR1 kinase—phosphorylated form of this peptide).
In the assay, compounds were tested at a range of concentrations. […] Percentage inhibition at 1 uM, as expressed herein, is a calculated value based on the curve fit that was generated experimentally. From the fitted curve plot, the effect of compound at a concentration of 1 uM was calculated as a percentage inhibition. The IC50 is the concentration of compound, which inhibits FGFR1 kinase activity by 50% in the context of this assay. This value is calculated using a standard curve fitting software package Origin™.
`COc1cc(CCc2cc(NC(=O)c3cnc(N4C[C@@H](C)N(CC#N)[C@@H](C)C4)cn3)[nH]n2)cc(OC)c1` [Example 129, 5-[(3R,5S)-4-(cyanomethyl)-3,5-dimethylpiperazin-1-yl]-N-[5-[2-(3,5-dimethoxyphenyl)ethyl]-2H-pyrazol-3-yl]pyrazine-2-carboxamide] yielded an IC50 of 3.5 nM.

`COc1cc(COc2cc(NC(=O)c3cnc(N4C[C@@H](C)N(C)[C@@H](C)C4)cn3)[nH]n2)cc(OC)c1` [Example 130, N-[5-[(3,5-dimethoxyphenyl)methoxy]-2H-pyrazol-3-yl]-5-[(3R,5S)-3,4,5-trimethylpiperazin-1-yl]pyrazine-2-carboxamide]: half-maximal inhibition (IC50) required 0.59 nM.

`COc1cc(COc2cc(NC(=O)c3cnc(N4C[C@@H](C)N(CC#N)[C@@H](C)C4)cn3)[nH]n2)cc(OC)c1` [Example 131, 5-[(3R,5S)-4-(cyanomethyl)-3,5-dimethylpiperazin-1-yl]-N-[5-[(3,5-dimethoxyphenyl)methoxy]-2H-pyrazol-3-yl]pyrazine-2-carboxamide]: the IC50 came to 3.5 nM.

In turn, `COc1cc(COc2cc(NC(=O)c3cnc(N4CCN(C)C(C)C4)nc3)[nH]n2)cc(OC)c1` (stereo not drawn) [Example 132, N-[5-[(3,5-dimethoxyphenyl)methoxy]-2H-pyrazol-3-yl]-2-(3,4-dimethylpiperazin-1-yl)pyrimidine-5-carboxamide] displayed an IC50 of 3.6 nM.

For the molecule `COc1cc(COc2cc(NC(=O)c3cnc(N4CCN(C5CC5)CC4)nc3)[nH]n2)cc(OC)c1` [Example 133, 2-(4-cyclopropylpiperazin-1-yl)-N-[5-[(3,5-dimethoxyphenyl)methoxy]-2H-pyrazol-3-yl]pyrimidine-5-carboxamide], the IC50 was 3.9 nM.

Regarding `COc1cc(COc2cc(NC(=O)c3cnc(N4CCN5CCCC5C4)nc3)[nH]n2)cc(OC)c1` (stereo not drawn) [Example 134, 2-(3,4,6,7,8,8a-hexahydro-1H-pyrrolo[2,1-c]pyrazin-2-yl)-N-[5-[(3,5-dimethoxyphenyl)methoxy]-2H-pyrazol-3-yl]pyrimidine-5-carboxamide], the 50% inhibitory concentration (IC50) was 2.4 nM.

In turn, `COc1cc(CCc2cc(NC(=O)c3cnc(N4CCN(C)C(C)C4)nc3)[nH]n2)cc(OC)c1` (stereo not drawn) [Example 135, N-[5-[2-(3,5-dimethoxyphenyl)ethyl]-2H-pyrazol-3-yl]-2-(3,4-dimethylpiperazin-1-yl)pyrimidine-5-carboxamide] had a concentration for half-maximal inhibition (IC50) of 2.6 nM.

`COc1cc(CCc2cc(NC(=O)c3cnc(N4C[C@@H](C)N(C)[C@@H](C)C4)nc3)[nH]n2)cc(OC)c1` [Example 136, N-[5-[2-(3,5-dimethoxyphenyl)ethyl]-2H-pyrazol-3-yl]-2-[(3R,5S)-3,4,5-trimethylpiperazin-1-yl]pyrimidine-5-carboxamide]: the IC50 came out at 1.9 nM.

Molecule `COc1cc(CCc2cc(NC(=O)c3ccc(N4CCN(C(C)CO)CC4)cc3)[nH]n2)cc(OC)c1` (stereo not drawn) [Example 137, N-[5-[2-(3,5-dimethoxyphenyl)ethyl]-2H-pyrazol-3-yl]-4-[4-(1-hydroxypropan-2-yl)piperazin-1-yl]benzamide] registered an IC50 of 0.57 nM.

In turn, `COc1cc(COc2cc(NC(=O)c3cnc(N4C[C@@H](C)N(C)[C@@H](C)C4)nc3)[nH]n2)cc(OC)c1` [Example 138, N-(3-(3,5-dimethoxybenzyloxy)-1H-pyrazol-5-yl)-2-((3R,5S)-3,4,5-trimethylpiperazin-1-yl)pyrimidine-5-carboxamide] registered an IC50 of 2.6 nM.

`COc1cc(CCc2cc(NC(=O)c3ccc(N4CCNC(C)(C)C4)cc3)[nH]n2)cc(OC)c1` [Example 139, N-[5-[2-(3,5-dimethoxyphenyl)ethyl]-2H-pyrazol-3-yl]-4-(3,3-dimethylpiperazin-1-yl)benzamide] had an IC50 of 0.47 nM.

Consider `COc1cc(COc2cc(NC(=O)c3ccc(N4CCNC(C)(C)C4)s3)[nH]n2)cc(OC)c1` [Example 140, N-[5-[(3,5-dimethoxyphenyl)methoxy]-2H-pyrazol-3-yl]-5-(3,3-dimethylpiperazin-1-yl)thiophene-2-carboxamide], for which the IC50 came out at 0.98 nM.

Regarding `CCN1CCN(c2ccc(C(=O)Nc3cc(OCc4cc(OC)cc(OC)c4)n[nH]3)s2)CC1` [Example 141, N-[5-[(3,5-dimethoxyphenyl)methoxy]-2H-pyrazol-3-yl]-5-(4-ethylpiperazin-1-yl)thiophene-2-carboxamide], inhibition was half-maximal at 0.86 nM (IC50).

For `COc1cc(CCc2cc(NC(=O)c3ccc(N4CCCN(C)CC4)s3)[nH]n2)cc(OC)c1` [Example 142, N-[5-[2-(3,5-dimethoxyphenyl)ethyl]-2H-pyrazol-3-yl]-5-(4-methyl-1,4-diazepan-1-yl)thiophene-2-carboxamide], the IC50 came to 2.1 nM.

In the case of `CCN1CCN(c2ncc(C(=O)Nc3cc(CCc4cc(OC)cc(OC)c4)n[nH]3)cn2)CC1C` (stereo not drawn) [Example 143, N-[5-[2-(3,5-dimethoxyphenyl)ethyl]-2H-pyrazol-3-yl]-2-(4-ethyl-3-methylpiperazin-1-yl)pyrimidine-5-carboxamide], the IC50 amounted to 2.7 nM.

Molecule `C=CCN1CCC(c2ccc(C(=O)Nc3cc(CCc4cc(OC)cc(OC)c4)n[nH]3)cc2)CC1` [Example 144, N-[5-[2-(3,5-dimethoxyphenyl)ethyl]-2H-pyrazol-3-yl]-4-(1-prop-2-enylpiperidin-4-yl)benzamide] displayed an IC50 of 0.041 nM.

On to `COc1cc(CCc2cc(NC(=O)c3ccc(N4CCCNCC4)cc3)[nH]n2)cc(OC)c1` [Example 145, 4-(1,4-diazepan-1-yl)-N-[5-[2-(3,5-dimethoxyphenyl)ethyl]-2H-pyrazol-3-yl]benzamide], for which the IC50 is 0.7 nM.

As to `C#CCN1CCC(c2ccc(C(=O)Nc3cc(CCc4cc(OC)cc(OC)c4)n[nH]3)cc2)CC1` [Example 146, N-[5-[2-(3,5-dimethoxyphenyl)ethyl]-2H-pyrazol-3-yl]-4-(1-prop-2-ynylpiperidin-4-yl)benzamide], inhibition was half-maximal at 1.1 nM (IC50).

In turn, `COc1cc(COc2cc(NC(=O)c3ccc(N4C[C@@H](C)N[C@@H](C)C4)s3)[nH]n2)cc(OC)c1` [Example 147, N-[5-[(3,5-dimethoxyphenyl)methoxy]-2H-pyrazol-3-yl]-5-[(3S,5R)-3,5-dimethylpiperazin-1-yl]thiophene-2-carboxamide] gave an IC50 of 1.8 nM.

With `COCCN1CCC(c2ccc(C(=O)Nc3cc(CCc4cc(OC)cc(OC)c4)n[nH]3)cc2)CC1` [Example 148, N-[5-[2-(3,5-dimethoxyphenyl)ethyl]-2H-pyrazol-3-yl]-4-[1-(2-methoxyethyl)piperidin-4-yl]benzamide], the IC50 turned out to be 0.87 nM.

Molecule `COc1cc(CCc2cc(NC(=O)c3cnc(N4CCN[C@@H](C(C)C)C4)nc3)[nH]n2)cc(OC)c1` [Example 149, N-[5-[2-(3,5-dimethoxyphenyl)ethyl]-2H-pyrazol-3-yl]-2-[(3S)-3-propan-2-ylpiperazin-1-yl]pyrimidine-5-carboxamide] came in with a 50% inhibitory concentration (IC50) of 4.4 nM.

Consider `COc1cc(CCc2cc(NC(=O)c3cnc(N4CCN(C)C(=O)C4)nc3)[nH]n2)cc(OC)c1` [Example 150, N-[5-[2-(3,5-dimethoxyphenyl)ethyl]-2H-pyrazol-3-yl]-2-(4-methyl-3-oxopiperazin-1-yl)pyrimidine-5-carboxamide], for which it took 12 nM to reach half-maximal inhibition (IC50).

In the case of `COc1cc(COc2cc(NC(=O)c3ccc(N4CC5CCCNC5C4)cc3)[nH]n2)cc(OC)c1` (stereo not drawn) [Example 151, 4-(1,2,3,4,4a,5,7,7a-octahydropyrrolo[3,4-b]pyridin-6-yl)-N-[5-[(3,5-dimethoxyphenyl)methoxy]-2H-pyrazol-3-yl]benzamide], the midpoint of inhibition, the IC50, lay at 1.3 nM.

Consider `COc1cc(CCc2cc(NC(=O)c3cnc(C4CCN(C)CC4)cn3)[nH]n2)cc(OC)c1` [Example 152, N-[5-[2-(3,5-dimethoxyphenyl)ethyl]-2H-pyrazol-3-yl]-5-(1-methylpiperidin-4-yl)pyrazine-2-carboxamide], for which half-maximal inhibition (IC50) required 1.3 nM.

`COc1cc(CCc2cc(NC(=O)c3cnc(C4=CCN(C)CC4)cn3)[nH]n2)cc(OC)c1` [Example 153, N-[5-[2-(3,5-dimethoxyphenyl)ethyl]-2H-pyrazol-3-yl]-5-(1-methyl-3,6-dihydro-2H-pyridin-4-yl)pyrazine-2-carboxamide] had an IC50 of 0.82 nM.

`COc1cc(CCc2cc(NC(=O)c3ccc(N4C[C@@H](C)N(C)[C@@H](C)C4)cc3)[nH]n2)cc(OC)c1` [Example 155, N-[5-[2-(3,5-dimethoxyphenyl)ethyl]-2H-pyrazol-3-yl]-4-[(3R,5S)-3,4,5-trimethylpiperazin-1-yl]benzamide] returned an IC50 of 0.45 nM.

On to `COc1cc(CCc2cc(NC(=O)c3ccc(N4CCCN(C)CC4)cc3)[nH]n2)cc(OC)c1` [Example 156, N-[5-[2-(3,5-dimethoxyphenyl)ethyl]-2H-pyrazol-3-yl]-4-(4-methyl-1,4-diazepan-1-yl)benzamide], for which the half-inhibitory concentration (IC50) is 0.81 nM.
